Bounds are passed on as bounds.

The assay deals with T1, human GPR119 (hGPR119) (Homo sapiens, UniProt Q8TDV5).
T1 construct: expressed in transfected cells
T1 sequence (Q8TDV5 1-335): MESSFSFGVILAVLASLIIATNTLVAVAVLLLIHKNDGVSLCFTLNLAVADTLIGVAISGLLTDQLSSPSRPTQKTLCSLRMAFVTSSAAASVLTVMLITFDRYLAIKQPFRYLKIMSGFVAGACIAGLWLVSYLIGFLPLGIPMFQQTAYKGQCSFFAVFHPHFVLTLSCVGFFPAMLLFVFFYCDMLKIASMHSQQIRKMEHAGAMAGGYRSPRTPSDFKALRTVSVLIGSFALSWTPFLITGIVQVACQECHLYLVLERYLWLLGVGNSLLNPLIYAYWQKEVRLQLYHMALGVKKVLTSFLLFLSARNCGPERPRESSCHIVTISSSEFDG
As to the kind of experiment: cAMP accumulation assay (cAMP Gs dynamic HTRF kit). The format is cell-based. The following applies: CHO-K1 cells stably expressing hGPR119, 4-parameter fit; for Emax: 1 h, % activity normalized to Max/Min controls; for EC50: cAMP accumulation. As to the method:
CHO-K1 cells stably expressing human GPR119 (hGPR119) were prepared by transfection of a GPR119-carrying plasmid using Lipofectamine 2000 (following manufacturer instructions). A stable cell line was established using the limiting dilution method with geneticine selection. Assay-ready frozen (ARF) cells were prepared and used throughout the study.
The assay was performed in a 384-well plate format using the cAMP Gs dynamic assay kit from Cisbio. ARF cells expressing hGPR119 were thawed, washed and then resuspended in cAMP stimulation buffer at a cell density of 1.1×10^6 cells/mL. Cells were plated at a density of ˜10,000 cells/well (9 μL/well). Dose response curves for the tested compounds were prepared in a cAMP stimulation buffer, containing 0.1% Tween 80 at 4 fold the final concentration. The compounds were then transferred to the cell plates using BRAVO (3 μL/well) and the plates were incubated for 60 minutes at 37° C./5% CO2. Detection buffer (10 μL, prepared as described in the cAMP Gs dynamic kit) were added to each well, and the plates were incubated at ambient temperature for 1 hr.
RT-FRET was measured using a ClarioSTAR plate reader, calculating the ratio between emissions at 665 nm and 620 nm (HTRF ratio). The HTRF ratio for positive (Max) and negative (Min) controls were used to normalize HTRF data and generate values for % activity. EC50 and Max activity values were determined using a standard 4-parameter fit.
In general terms: cAMP levels reflect the balance of adenylyl cyclase and phosphodiesterase activity.

With `CCCc1cnc(N2CCC(CCCOc3ccc(CC(=O)N4CC(CNC(CO)(CO)CO)C4)c(F)c3)CC2)nc1` [Example 72, 1-(3-(((1,3-dihydroxy-2-(hydroxymethyl)propan-2-yl)amino)methyl)azetidin-1-yl)-2-(2-fluoro-4-(3-(1-(5-propylpyrimidin-2-yl)piperidin-4-yl)propoxy)phenyl)ethan-1-one], the maximal response (Emax) (in general, the greatest response seen or fitted, relative to the assay's reference) is ≥ 130% and the 50% effective concentration (EC50) – broadly, the concentration needed to bring the measured effect to its halfway point – was ≤ 100 nM.

On to `O=C(NC(CO)(CO)CO)[C@@H]1CCN(C(=O)Cc2ccc(OCCCC3CCN(c4ncc(Cl)cn4)CC3)cc2F)C1` [Example 102, (3R)-1-[2-[4-[3-[1-(5-chloropyrimidin-2-yl)-4-piperidyl]propoxy]-2-fluoro-phenyl]acetyl]-N-[2-hydroxy-1,1-bis(hydroxymethyl)ethyl]pyrrolidine-3-carboxamide], for which the Emax was in the range of 100 to 130% and the EC50 was ≤ 100 nM.

As for `O=C(NCCNCCC1CN(C(=O)Cc2ccc(OCCCC3CCN(c4ncc(Cl)cn4)CC3)cc2F)C1)NC(CO)(CO)CO` [Example 60, 1-(2-((2-(1-(2-(4-(3-(1-(5-chloropyrimidin-2-yl)piperidin-4-yl)propoxy)-2-fluorophenyl)acetyl)azetidin-3-yl)ethyl)amino)ethyl)-3-(1,3-dihydroxy-2-(hydroxymethyl)propan-2-yl)urea], the Emax is ≥ 130% and the 50% effective concentration (EC50) fell in the range of 100 to 1000 nM.

The compound `O=C(NCCCCCCS(=O)(=O)O)C1CN(C(=O)Cc2ccc(OCCCC3CCN(c4ncc(Cl)cn4)CC3)cc2F)C1` [Example 175, 6-[[1-[2-[4-[3-[1-(5-chloropyrimidin-2-yl)-4-piperidyl]propoxy]-2-fluoro-phenyl]acetyl]azetidine-3-carbonyl]amino]hexane-1-sulfonic acid] gave an Emax of 100 to 130% and an EC50 of 100 to 1000 nM.

For `COCc1cnc(N2CCC([C@H]3C[C@H]3COCc3ccc(CC(=O)N4CC(CNC[C@H](O)[C@@H](O)[C@H](O)[C@H](O)CO)C4)c(F)c3)CC2)nc1` [Example 96, 2-[2-fluoro-4-[[(1R,2R)-2-[1-[5-(methoxymethyl)pyrimidin-2-yl]-4-piperidyl]cyclopropyl]methoxymethyl]phenyl]-1-[3-[[[(2S,3R,4R,5R)-2,3,4,5,6-pentahydroxyhexyl]amino]methyl]azetidin-1-yl]ethanone], the Emax lay in the range of 100 to 130% and the EC50 was 100 to 1000 nM.

`O=C(Cc1ccc(COCCCC2CCN(c3ncc(Cl)cn3)CC2)cc1F)N1CC(CNC[C@H](O)[C@@H](O)[C@H](O)[C@H](O)CO)C1` [Example 90, 2-[4-[3-[1-(5-chloropyrimidin-2-yl)-4-piperidyl]propoxymethyl]-2-fluoro-phenyl]-1-[3-[[[(2S,3R,4R,5R)-2,3,4,5,6-pentahydroxyhexyl]amino]methyl]azetidin-1-yl]ethanone] returned an Emax of 50 to 100% and a half-maximal effective concentration (EC50) of 100 to 1000 nM.

With `O=C(Cc1ccc(CC(=O)N2CC(CNC[C@H](O)[C@@H](O)[C@H](O)[C@H](O)CO)C2)c(F)c1)OCCC1CCN(c2ncc(Cl)cn2)CC1` (racemic) [Example 92, 2-[1-(5-chloropyrimidin-2-yl)-4-piperidyl]ethyl 2-[3-fluoro-4-[2-oxo-2-[3-[[[rac-(2S,3R,4R,5R)-2,3,4,5,6-pentahydroxyhexyl]amino]methyl]azetidin-1-yl]ethyl]phenyl]acetate], the Emax lay within 100 to 130% and the 50% effective concentration (EC50) was 100 to 1000 nM.

Take `O=C(CC1CN(C(=O)Cc2ccc(OCCCC3CCN(c4ncc(Cl)cn4)CC3)cc2F)C1)NCCCCS(=O)(=O)O` [Example 178, 4-[[2-[1-[2-[4-[3-[1-(5-chloropyrimidin-2-yl)-4-piperidyl]propoxy]-2-fluoro-phenyl]acetyl]azetidin-3-yl]acetyl]amino]butane-1-sulfonic acid]: the Emax was 100 to 130% and the EC50 lay within 100 to 1000 nM.

For `CCCc1cnc(N2CCC(CCCOc3cc(F)c(CC(=O)N4CC(CNCCNC(=O)NC(CO)(CO)CO)C4)c(F)c3)CC2)nc1` [Example 77, 1-(2-(((1-(2-(2,6-difluoro-4-(3-(1-(5-propylpyrimidin-2-yl)piperidin-4-yl)propoxy)phenyl)acetyl)azetidin-3-yl)methyl)amino)ethyl)-3-(1,3-dihydroxy-2-(hydroxymethyl)propan-2-yl)urea], the Emax was ≥ 130% and the EC50 lay within 100 to 1000 nM.

The compound `CC(C)OC(=O)N1CCC2(CC1)CC(CCCOc1ccc(CC(=O)N3CC(CNC[C@H](O)[C@@H](O)[C@H](O)[C@H](O)CO)C3)c(F)c1)C2` [Example 117, isopropyl 2-[3-[3-fluoro-4-[2-oxo-2-[3-[[[(2S,3R,4R,5R)-2,3,4,5,6-pentahydroxyhexyl]amino]methyl]azetidin-1-yl]ethyl]phenoxy]propyl]-7-azaspiro[3.5]nonane-7-carboxylate] came in with an Emax of 100 to 130% and a 50% effective concentration (EC50) of 100 to 1000 nM.

Take `O=C(Cc1ccc(OCCCC2CCN(c3ncc(Cl)cn3)CC2)nc1)N1CC(CNC[C@H](O)[C@@H](O)[C@H](O)[C@H](O)CO)C1` [Example 179, 2-[6-[3-[1-(5-chloropyrimidin-2-yl)-4-piperidyl]propoxy]-3-pyridyl]-1-[3-[[[(2S,3R,4R,5R)-2,3,4,5,6-pentahydroxyhexyl]amino]methyl]azetidin-1-yl]ethanone]: the Emax was 100 to 130% and the EC50 is 1000 to 10000 nM.

As for `CCOc1cnc(N2CCC(CCCOc3ccc(CC(=O)N4CC[C@@H](CNCC(CO)(CO)CO)C4)c(F)c3)CC2)nc1` [Example 154, 2-[4-[3-[1-(5-ethoxypyrimidin-2-yl)-4-piperidyl]propoxy]-2-fluoro-phenyl]-1-[(3S)-3-[[[3-hydroxy-2,2-bis(hydroxymethyl)propyl]amino]methyl]pyrrolidin-1-yl]ethanone], the maximal effect (Emax) lay within 100 to 130% and the concentration for a half-maximal effect (EC50) is ≤ 100 nM.

For the compound `O=C(Cc1ccc(OCCCC2CCN(c3ncc(Cl)cn3)CC2)cc1F)N1CC[C@@H](CNC[C@H](O)[C@@H](O)[C@H](O)[C@H](O)CO)C1` [Example 98, 2-[4-[3-[1-(5-chloropyrimidin-2-yl)-4-piperidyl]propoxy]-2-fluoro-phenyl]-1-[(3S)-3-[[[(2S,3R,4R,5R)-2,3,4,5,6-pentahydroxyhexyl]amino]methyl]pyrrolidin-1-yl]ethanone], the Emax is 100 to 130% and the EC50 was ≤ 100 nM.

In turn, `O=C(Cc1ccc(OCCCC2CCN(c3ncc(Cl)cn3)CC2)cc1F)N1CC(CCNC(CO)(CO)CO)C1` [Example 59, 2-(4-(3-(1-(5-chloropyrimidin-2-yl)piperidin-4-yl)propoxy)-2-fluorophenyl)-1-(3-(2-((1,3-dihydroxy-2-(hydroxymethyl)propan-2-yl)amino)ethyl)azetidin-1-yl)ethan-1-one] registered an Emax of 100 to 130% and an EC50 of 100 to 1000 nM.

For `O=C(OC[C@@H]1C[C@@H]1C1CCN(c2ncc(Cl)cn2)CC1)c1ccc(CC(=O)N2CC(CNC[C@H](O)[C@@H](O)[C@H](O)[C@H](O)CO)C2)c(F)c1` (racemic) [Example 95, (1R,2R)-2-[1-(5-chloropyrimidin-2-yl)-4-piperidyl]cyclopropyl]methyl 3-fluoro-4-[2-oxo-2-[3-[[[rac-(2S,3R,4R,5R)-2,3,4,5,6-pentahydroxyhexyl]amino]methyl]azetidin-1-yl]ethyl]benzoate], the Emax was in the range of 100 to 130% and the EC50 lay within 100 to 1000 nM.

On to `O=C(CCC1CN(C(=O)Cc2c(F)cc(OCCCC3CCN(c4ncc(Cl)cn4)CC3)cc2F)C1)NCC(O)(CO)CO` [Example 36, 3-[1-[2-[4-[3-[1-(5-chloropyrimidin-2-yl)-4-piperidyl]propoxy]-2,6-difluoro-phenyl]acetyl]azetidin-3-yl]-N-[2,3-dihydroxy-2-(hydroxymethyl)propyl]propanamide], for which the maximum response (Emax) lay within 100 to 130% and the concentration giving a half-maximal response (EC50) is ≤ 100 nM.

Regarding `COCC1(C(=O)NCC(CO)(CO)CO)CCN(C(=O)Cc2ccc(OCCCC3CCN(c4ncc(Cl)cn4)CC3)cc2F)C1` (stereo not drawn) [Example 137, 1-[2-[4-[3-[1-(5-chloropyrimidin-2-yl)-4-piperidyl]propoxy]-2-fluoro-phenyl]acetyl]-N-[3-hydroxy-2,2-bis(hydroxymethyl)propyl]-3-(methoxymethyl)pyrrolidine-3-carboxamide], the maximal effect (Emax) fell in the range of 100 to 130% and the EC50 was ≤ 100 nM.

Regarding `O=C(Cc1ccc(OCCCC2CCC23CCN(c2ncc(Cl)cn2)CC3)cc1F)N1CC(CNC[C@H](O)[C@@H](O)[C@H](O)[C@H](O)CO)C1` (stereo partly drawn) [Example 144, 2-[4-[3-[7-(5-chloropyrimidin-2-yl)-7-azaspiro[3.5]nonan-3-yl]propoxy]-2-fluoro-phenyl]-1-[3-[[[(2S,3R,4R,5R)-2,3,4,5,6-pentahydroxyhexyl]amino]methyl]azetidin-1-yl]ethanone], the maximal effect (Emax) fell in the range of 100 to 130% and the 50% effective concentration (EC50) fell in the range of 1000 to 10000 nM.

The values above are taken from US20230061736A1, “GPR119 AGONISTS” (Kallyope, Inc., priority 2019, published 2023).
